{"source": "patent US11274268B2", "about": "“Detergent compositions for removing heavy metals and formaldehyde” (FNG RESEARCH CO., LTD., priority 2017, dated 2022)", "key": {"[1]": {"assay": "Formaldehyde removing ability test (GC)", "conditions": "2.0% formaldehyde solution, 3 molar equivalents, room temperature"}, "human skin": {"test_system": "human skin", "assay": "Skin irritation test of active ingredient (patch method, CTFA guidelines)", "assay_type": "in vivo", "conditions": "for Test result (number of subject) (+) / Test result (number of subject) (−) / Test result (number of subject) (++) / Test result (number of subject) (±): 20 subjects, 24 hours patch; for Test result (number of subject) (+): apparent reddening; for Test result (number of subject) (−): no erythema or symptoms; for Test result (number of subject) (++): reddened and swollen; for Test result (number of subject) (±): slightly reddish; for Degree of irritation: Equation 1", "procedure": "A total of 20 people (10 men and 10 women in their 20s and 30s) were tested for skin irritation using the patch method according to the guidelines of CTFA (The Cosmetic, Toiletry & Fragrance Association, Inc. Washington, D.C.).\nA filter paper disk was placed in an 8 mm diameter, 10 panels of pin chamber.\nAfter 24 hours, the pin chamber was removed, and skin conditions were visually observed. The degree and grade for skin irritation were calculated according to the following Equation 1, and the results are shown in Table 3 below.\n[Criteria for Skin Irritation]\n(−): No erythema or particularly no symptoms; (±): slightly reddish than the periphery; (+): Apparent reddening than periphery; (++): More reddened and swollen than periphery.\n[Grade for Skin Irritation]\nDegree of irritation 0-0.1: Grade I (unstimulated);\nDegree of irritation 0.11-0.3: Grade II (weakly stimulated);\nDegree of irritation 0.31-0.5: Grade III (moderately stimulated);\nDegree of irritation 0.51 or more: Grade IV (strongly stimulated)"}}, "data": [{"smiles": "O=C(O)c1ccc(N2CCN(c3ccc(C(=O)O)o3)CCN(c3ccc(C(=O)O)o3)CCN(c3ccc(C(=O)O)o3)CC2)o1", "note": "[Embodiment 8, 5,5′,5″,5′″-(1,4,7,10-tetraazacyclododecane-1,4,7,10-tetrayl)tetrakis(furan-2-carboxylic Acid)]", "values": [{"measurement": "Area (formaldehyde, GC)", "setting": "[1]; 30 min", "value": 0.168, "unit": "mAU * min"}, {"measurement": "Area (formaldehyde, GC)", "setting": "[1]; 180 min", "value": 0, "unit": "mAU * min"}, {"measurement": "Area (formaldehyde, GC)", "setting": "[1]; Initial", "value": 0.305, "unit": "mAU * min"}, {"measurement": "Grade", "setting": "human skin; content 0.1%", "value": "I (Degree of irritation 0-0.1: Grade I (unstimulated))"}, {"measurement": "Test result (number of subject) (+)", "setting": "human skin; content 0.1%", "value": 0}, {"measurement": "Test result (number of subject) (−)", "setting": "human skin; content 0.1%", "value": 20}, {"measurement": "Test result (number of subject) (++)", "setting": "human skin; content 0.1%", "value": 0}, {"measurement": "Test result (number of subject) (±)", "setting": "human skin; content 0.1%", "value": 0}, {"measurement": "Degree of irritation", "setting": "human skin; content 0.1%", "value": 0}, {"measurement": "Grade", "setting": "human skin; content 0.5%", "value": "I (Degree of irritation 0-0.1: Grade I (unstimulated))"}, {"measurement": "Test result (number of subject) (+)", "setting": "human skin; content 0.5%", "value": 0}, {"measurement": "Test result (number of subject) (−)", "setting": "human skin; content 0.5%", "value": 20}, {"measurement": "Test result (number of subject) (++)", "setting": "human skin; content 0.5%", "value": 0}, {"measurement": "Test result (number of subject) (±)", "setting": "human skin; content 0.5%", "value": 0}, {"measurement": "Degree of irritation", "setting": "human skin; content 0.5%", "value": 0}, {"measurement": "Grade", "setting": "human skin; content 1.0%", "value": "I (Degree of irritation 0-0.1: Grade I (unstimulated))"}, {"measurement": "Test result (number of subject) (+)", "setting": "human skin; content 1.0%", "value": 0}, {"measurement": "Test result (number of subject) (−)", "setting": "human skin; content 1.0%", "value": 18}, {"measurement": "Test result (number of subject) (++)", "setting": "human skin; content 1.0%", "value": 0}, {"measurement": "Test result (number of subject) (±)", "setting": "human skin; content 1.0%", "value": 2}, {"measurement": "Degree of irritation", "setting": "human skin; content 1.0%", "value": 0.10}]}]}
